The values below come from PMC4766415 (Nature Communications, 2016).

The test system of one data set is T1, A25T-TTR.
T1 construct: TTR is composed of four identical 127 amino-acid residue β-sheet-rich subunits; made in house; host or cells: Escherichia coli BL21(DE3), pET expression system
Description: A25T-TTR sedimentation assay (total protein precipitation). The conditions noted are these: four molar equivalents (15 μM); pH 5.0, 37 °C, 22 h. In kind it is biochemical, human. The method, then: TTR aggregation can also be measured by sedimentation using centrifugation. […] TTR aggregation induction was performed as described above. […] The supernatant was carefully removed, and 400 μl of Guanidine (8 M) was added to each sample and subsequently incubated for 1 h to unfold the aggregated TTR. The amount of resolubilized TTR was measured by absorbance at 280 nm. The percentage of TTR precipitated was calculated with respect to total (soluble) TTR at time 0. […]
aggregation as measured by total protein precipitation. […]
aggregation conditions (pH 4.4 and 37°C) for 72 hours. The samples were then centrifuged at 20,000 x g for 1 h at 4 °C and the supernatants (soluble protein) were carefully removed. The precipitated TTR from each sample was resolubilized by addition of 8 M guanidine solution followed by 1 h incubation at RT. TTR concentration was measured by spectroscopy at 280 nm and total amount of resolubilized TTR was calculated. The data is presented as % insoluble […]
was performed for A25T-TTR at pH 5.0 and 37°C for 22 hours . […]

In the next data set the test system is AC16 cells. Nature of the data set: TTR-induced cytotoxicity in AC16 cells, resazurin reduction assay. To be noted: 16 μM compound, 8 μM TTR; 24 h. It counts as cell-based, human. The text has this:
Error bars indicate s.e.m. […] Error bars indicate s.e.m. (n=4). […] Error bars indicate s.e.m. (n=3).
A general note: Alamar Blue is a resazurin reagent that responds to reducing activity.

The subject of another data set is T2, L55P-TTR.
T2 construct: TTR is composed of four identical 127 amino-acid residue β-sheet-rich subunits; expressed in transfected cells; host or cells: rat Schwannoma RN22 cells, metallothionein promoter, ZnSO4 induction
Description: Dot-blot filter assay of L55P-TTR aggregation secreted by RN22 cells. The conditions noted are these: 1 μM in the medium. In kind it is cell-based, human. Here is the method: The extent of extracellular L55P-TTR aggregation was monitored by a filter trap assay followed by TTR immunodetection.
The rat Schwannoma cell line RN22 stably co-transfected with TTR L55P cDNA under the control of the metallothionein promoter was used to test the inhibitors of TTR aggregation as in ref. [51]. […] TTR in the medium was quantified by ELISA, and the volume of medium corresponding to 500 ng of TTR was applied on to a 0.2-μm pore cellulose acetate membrane filter (Schleicher and Schuell) using a manifold system (Gibco BRL) to separate soluble proteins from aggregates. […] Detection was performed with ECL (GE Healthcare). Dot blot quantification was performed using the ImageQuant program. The percentage of aggregation inhibition was calculated as 100 × ((Control—Treated)/Control). Experiments were repeated three times in triplicate.

A further data set deals with T3, human V30M-TTR.
T3 construct: plasma samples from the transgenic mice expressing human V30M-TTR; from tissue; host or cells: plasma of transgenic mice expressing human V30M-TTR
Nature of the data set: T4 competition in plasma of transgenic mice after oral tolcapone. It counts as in vivo. To be noted: 30 to 300 mg kg^−1 by gavage. The method, then:
The animals were killed 1 h after the last dose. Plasma samples were obtained before dosing (t=0) and at the end of the experiment. T4 competition assays by native gel electrophoresis were performed in plasma following the same protocol as in Fig. 4a. At basal conditions (t=0), around 40% of the total radioactivity was associated with the TTR band in samples from all animals.
Plasma samples were treated with radiolabelled T4 and subjected to native PAGE. The fraction of radiolabelled T4 bound to the band corresponding to TTR is represented. Error bars indicate s.e.m. (n=4). (b) TTR tetramer stability in the plasma of control and tolcapone-treated transgenic mice was assessed by IEF under semi-denaturing conditions. The ratio between the TTR tetramers and the rest of the TTR species in the IEF gels was calculated for controls and tolcapone-treated mice. The data are expressed as fold increase of the ratio TTR tetramer/total TTR with respect to samples from vehicle-treated animals. ***P<0.001 and **P<0.01 (Student's t-test). Error bars indicate s.e.m. (n=3). […] TTR stabilization was quantified by immunoturbidity after urea denaturation with subsequent crosslinking with glutaraldehyde as detailed in the experimental section. […] White bars correspond to plasma samples crosslinked 0 h after urea addition, black bars correspond to plasma samples crosslinked after 48 h of urea denaturation. […]

Data set [1] in a line: Tolcapone quantification in human plasma after oral administration (UPLC-MS/MS). In kind it is in vivo. To be noted: 200 mg. The method, then: TTR stabilization in vivo was measured using an immunoturbidimetric assay as in Fig. 4c. The fraction of initial tetramer concentration (FOI) was determined in triplicate for each sample (FOI=TTR tetramer after 48 h urea treatment/TTR tetramer at time 0 in the presence of urea).
Blood was collected 30 min before administration and 2 h after the dose in BD Vacutainer tubes with Lithium-Heparin and gel for plasma separation, following the manufacturer's instructions. Briefly, after gently mixing the tubes by inversion, blood was centrifuged at 1,300g for 10 min at 20 °C. Supernatants were collected and immediately stored at −80 °C until analysis.
Extracted samples were analysed on a Waters Acquity UPLC coupled with a Waters Xevo TQ MS triple quadrupole mass spectrometer. Chromatographic separation was achieved on an Acquity HSS C18 column using a gradient elution with the mobile phase of methanol and 0.1% formic acid in water.

Another data set deals with Y78F-TTR (Homo sapiens, UniProt P02766, Y98F). Description: Y78F-TTR aggregation inhibition, turbidity at 340 nm, pH 4.2.

With `Cc1ccc(C(=O)c2cc(O)c(O)c([N+](=O)[O-])c2)cc1` [tolcapone], in the data set with A25T-TTR, the “reduction of A25T-TTR aggregation (sedimentation, Supplementary Fig. 1b)” value is on record as 50%. In the data set on AC16 cells, the “effect on WT-TTR and V122I-TTR induced reduction in cell viability” value is given as “rescued this toxic effect”. Besides, in the data set on L55P-TTR, the “reduction of L55P-TTR aggregation compared with untreated cells” value is roughly 90%. In addition, the “amount of T4 remaining bound to TTR at the end of treatment” value in the data set with human V30M-TTR is “decreased in a dose-dependent manner”. Moreover, the concentration at 2 h in data set [1] was determined as 13.6 µM. Further, the “RA (%): percent reduction of TTR aggregation rate at high inhibitor concentration” value on Y78F-TTR was 89.13%.
